This is an account of results in ChEMBL document CHEMBL5241112, “Insights into the recent progress in the medicinal chemistry of pyranopyrimidine analogs” (RSC Med Chem, 2022).

Converted amounts (≈) assume the structure as drawn.

One test has as its target DNA gyrase (Escherichia coli, UniProt P0AES4+P0AES6). As to the kind of experiment: Inhibition of Escherichia coli DNA gyrase. In kind it is protein-complex assay.
The test system of test [1] is Escherichia coli. Briefly: Antibacterial activity against Escherichia coli ATCC 25922 assessed as diameter of inhibition zone at 50 mg/ml incubated for 24 hrs by paper disk diffusion method. Particulars: read-out: DIZ. In kind it is functional. On the technique in general: Agar diffusion results depend on both activity and mobility in agar.
The subject of test [2] is Aspergillus fumigatus. As to the kind of experiment: microbe, parasite or virus in culture. In kind it is functional. Particulars: ATCC204305, dose 50 mg/ml, time 24 hrs, read-out: DIZ.
The next test deals with Penicillium italicum. As to the kind of experiment: microbe, parasite or virus in culture. The class given is functional. Particulars: CECT 2294, dose 50 mg/ml, time 24 hrs, read-out: DIZ.
A short description of test [3]: Inhibition of Escherichia coli topoisomerase 4 assessed as reduction in decatenation.
Test [4] has as its system Klebsiella pneumoniae. As to the kind of experiment: Antibacterial activity against Klebsiella pneumoniae MGH 78578 assessed as diameter of inhibition zone at 50 mg/ml incubated for 24 hrs by paper disk diffusion method. Particulars: read-out: DIZ. The class given is functional.
Test [5] has as its system Staphylococcus epidermidis. As to the kind of experiment: Antibacterial activity against Staphylococcus epidermidis ATCC12228 assessed as inhibition of bacterial growth incubated for 24 hrs by disk diffusion method. In kind it is functional.
For test [6], the system named is Aspergillus fumigatus. Briefly: Antifungal activity against Aspergillus fumigatus ATCC204305 assessed as inhibition of […] growth incubated for 24 hrs by disk diffusion method. In kind it is functional.
Test [7] relates to Escherichia coli. Briefly: Antibacterial activity against Escherichia coli MTCC 723 assessed as diameter of inhibition zone at 0.1 mg/ml incubated for 24 hrs by agar well diffusion method. In kind it is functional. Particulars: read-out: DIZ.
The test system of test [8] is Staphylococcus aureus. As to the kind of experiment: Antibacterial activity against Staphylococcus aureus ATCC6538-P assessed as inhibition of bacterial growth incubated for 24 hrs by disk diffusion method. The class given is functional.
For a further test, the system named is Bacillus subtilis. As to the kind of experiment: Antibacterial activity against Bacillus subtilis assessed as diameter of inhibition zone at 100 ug/ml by disc diffusion method. In kind it is functional. Particulars: read-out: DIZ.
Test [9] deals with Staphylococcus aureus. As to the kind of experiment: Antibacterial activity against Staphylococcus aureus MTCC 87 assessed as diameter of inhibition zone at 0.1 mg/ml incubated for 24 hrs by agar well diffusion method. In kind it is functional. Particulars: read-out: DIZ.
For test [10], the system named is Staphylococcus aureus. Briefly: Antibacterial activity against Staphylococcus aureus assessed as diameter of inhibition zone at 100 ug/ml by disc diffusion method. Particulars: read-out: DIZ. In kind it is functional.
Test [11] relates to Klebsiella pneumoniae. As to the kind of experiment: Antibacterial activity against Klebsiella pneumoniae MTCC 109 assessed as diameter of inhibition zone at 0.1 mg/ml incubated for 24 hrs by agar well diffusion method. Particulars: read-out: DIZ. In kind it is functional.
In a further test the test system is Streptococcus pneumoniae. As to the kind of experiment: Antibacterial activity against Streptococcus pneumoniae ATCC BAA-255/R6 assessed as inhibition of bacterial growth incubated for 24 hrs by disk diffusion method. The class given is functional.
Test [12] relates to Klebsiella pneumoniae. Briefly: Antibacterial activity against Klebsiella pneumoniae assessed as diameter of inhibition zone at 100 ug/ml by disc diffusion method. The class given is functional. Particulars: read-out: DIZ.
The subject of test [13] is Escherichia coli. As to the kind of experiment: Antibacterial activity against Escherichia coli assessed as diameter of inhibition zone at 100 ug/ml by disc diffusion method. In kind it is functional. Particulars: read-out: DIZ.
Test [14] has as its system Pseudomonas aeruginosa. As to the kind of experiment: Antibacterial activity against Pseudomonas aeruginosa MTCC 741 assessed as diameter of inhibition zone at 0.1 mg/ml incubated for 24 hrs by agar well diffusion method. In kind it is functional. Particulars: read-out: DIZ.
Test [15] has as its system Klebsiella pneumoniae. As to the kind of experiment: Antimicrobial activity against Klebsiella pneumoniae ATCC 15380 assessed as diameter of inhibition zone at 20 mg/ml incubated for 24 hrs by disk diffusion method. Particulars: read-out: DIZ. The class given is functional.
For test [16], the system named is Pseudomonas aeruginosa. As to the kind of experiment: Antimicrobial activity against Pseudomonas aeruginosa ATCC 27853 assessed as diameter of inhibition zone at 20 mg/ml incubated for 24 hrs by disk diffusion method. In kind it is functional. Particulars: read-out: DIZ.
The subject of a further test is Citrobacter freundii. Briefly: Antimicrobial activity against Citrobacter freundii ATCC 8090 assessed as diameter of inhibition zone at 20 mg/ml incubated for 24 hrs by disk diffusion method. The class given is functional. Particulars: read-out: DIZ.
For test [17], the system named is Escherichia coli. As to the kind of experiment: Antimicrobial activity against Escherichia coli ATCC 25922 assessed as diameter of inhibition zone at 20 mg/ml incubated for 24 hrs by disk diffusion method. In kind it is functional. Particulars: read-out: DIZ.
The subject of the next test is Salmonella typhimurium. Briefly: Antimicrobial activity against Salmonella typhimurium ATCC 19430 assessed as diameter of inhibition zone at 20 mg/ml incubated for 24 hrs by disk diffusion method. In kind it is functional, Salmonella enterica subsp. enterica serovar Typhimurium. Particulars: Salmonella enterica, read-out: DIZ.
In another test the test system is NUGC. Briefly: Anticancer activity against human NUGC cells assessed as cell growth inhibition incubated for 24 hrs. In kind it is functional, cell-based.
A further test concerns HepG2. Briefly: Anticancer activity against human HepG2 cells assessed as cell growth inhibition incubated for 24 hrs. In kind it is functional, cell-based. Particulars: HepG2, 24 h.
Another test has as its system HONE1 cell line. As to the kind of experiment: Anticancer activity against human HONE1 cell line assessed as cell growth inhibition incubated for 24 hrs. Particulars: HONE1, 24 h. In kind it is functional, cell-based.
The next test deals with HA22T cell line. Briefly: Anticancer activity against human HA22T cells assessed as cell growth inhibition incubated for 24 hrs. The class given is functional, cell-based.
For the next test, the system named is MCF7. As to the kind of experiment: Anticancer activity against human MCF7 cells assessed as cell growth inhibition incubated for 24 hrs. In kind it is functional, cell-based. Particulars: MCF7, 24 h.
In the next test the test system is DLD-1. As to the kind of experiment: Anticancer activity against human DLD-1 cells assessed as cell growth inhibition incubated for 24 hrs. The class given is functional, cell-based. Particulars: DLD-1, 24 h.
The subject of test [18] is Mycobacterium tuberculosis. Briefly: Antitubercular activity against Mycobacterium tuberculosis H37Rv assessed as bacterial growth inhibition at 100 ug/ml. In kind it is functional.
The test system of another test is Plasmodium falciparum. As to the kind of experiment: microbe, parasite or virus in culture.
Test [19] concerns Escherichia coli. Briefly: Antibacterial activity against Escherichia coli MTCC 443 assessed as bacterial growth inhibition by broth microdilution method. The class given is functional.
Test [20] relates to Mycobacterium tuberculosis. As to the kind of experiment: Antitubercular activity against Mycobacterium tuberculosis H37Rv assessed as bacterial growth inhibition at 250 ug/ml. The class given is functional.
For test [21], the system named is Mycobacterium tuberculosis. Briefly: Antimicrobial activity against Mycobacterium tuberculosis H37Rv assessed reduction bacterial growth at 100 ug/ml incubated for 24 hrs by Lowensteine-Jensen method. The class given is functional. On the set-up: scale not given: the % may be the effect or the level left. Particulars: dose 100 µg/ml.

For `Nc1nc(=S)[nH]c2c1C(c1ccc(Cl)cc1)C=C(c1cc3ccccc3oc1=O)O2` (configuration not stated), the figures for the half-maximal inhibitory concentration (IC50) (on DNA gyrase; in test [3]) were 4.91 nM and 341 nM, respectively. For the same compound, the zone of inhibition at 50000 µg/mL came to 10 mm with Escherichia coli [1], 10 mm in the test with Aspergillus fumigatus [2], 16 mm with Penicillium italicum and 12 mm in the test on Klebsiella pneumoniae [4]. Besides, the MIC (in general, the smallest concentration in the dilution series that meets the test's criterion for growth inhibition) in test [5] worked out at 15.3 µg/mL (≈ 35.1 µM); in the test with Aspergillus fumigatus [6] it was 15.5 µg/mL (≈ 35.6 µM).

As to `CC1(C)S[C@@H]2[C@H](NC(=O)[C@H](N)c3ccc(O)cc3)C(=O)N2[C@H]1C(=O)O` [AMOXICILLIN], the zone of inhibition at 100 µg/mL in the test on Escherichia coli [7] is 14.9 mm; with Bacillus subtilis, 15.5 mm; in the test with Staphylococcus aureus [9], 13.8 mm; in the test with Staphylococcus aureus [10], 17.5 mm; in the test with Klebsiella pneumoniae [11], 13.6 mm; with Klebsiella pneumoniae [12], 18 mm. The zone of inhibition at 100 µg/mL amounted to 19.5 mm with Escherichia coli [13] and 15 mm in the test on Pseudomonas aeruginosa [14]. Also, the MIC with Staphylococcus aureus [8] is 31.3 µg/mL (≈ 85.7 µM); with Streptococcus pneumoniae, 7.8 µg/mL (≈ 21.3 µM); with Aspergillus fumigatus [6], 15.6 µg/mL (≈ 42.7 µM). In addition, the values for the zone of inhibition at 50000 µg/mL in the test with Escherichia coli [1] and in the test on Klebsiella pneumoniae [4] were 24 mm and 15 mm, respectively.

For `Cc1csc(C2C(C#N)=C(N)Oc3[nH]c(=O)[nH]c(=O)c32)c1` (configuration not stated), the zone of inhibition at 20000 µg/mL in the test on Klebsiella pneumoniae [15] was 16 mm; in the test with Pseudomonas aeruginosa [16], 18 mm; in the test with Citrobacter freundii it was 12 mm; in the test on Escherichia coli [17], 14 mm; in the test on Salmonella typhimurium, 20 mm.

Take `N#CC1=C(N)C2C(=NC(NN)=NC2c2ccc(Cl)cc2)OC1=O` (configuration not stated): the IC50 – broadly, the point on the concentration scale where inhibition reaches its midpoint – was 328 nM with NUGC; 263 nM with HepG2; 201 nM with HONE1 cell line; 282 nM in the test on HA22T cell line; 348 nM with MCF7; 606 nM in the test on DLD-1.

Take `CCOC(=O)C1=C(N)Oc2[nH]c(=O)[nH]c(=O)c2C1c1c(C)nn(-c2ccccc2)c1-n1ccnc1` (configuration not stated): the inhibition – broadly, the relative decrease from the control value, in per cent – at 100 µg/mL in [18] amounted to 30%. In addition, in the test on Plasmodium falciparum, the IC50 is 0.97 µg/mL (≈ 2.04 µM). In addition, the MIC in the test on Escherichia coli [19] was 100 µg/mL (≈ 210 µM). The inhibition at 250 µg/mL in [20] amounted to 37%. For the same compound, in test [21], the Activity came out at 92%.
